In patent US20050112573A1, “Method of detecting toxic substance” (priority 2001, published 2005):

Test system: yeast genes (level of expressed mRNA)
Assay: DNA chip analysis of expressed mRNA of yeast genes after 2 h culture with a toxic chemical substance
Format: cell-based, Saccharomyces cerevisiae S288C
Details: for The level of expressed mRNA in the presence of chemical substance/ (ratio to absence of chemical substance): stress protein genes, DNA chip; for The level of expressed mRNA in the presence of chemical substance/ in its absence, gene YPR184W: yeast gene YPR184W
How it was run: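 Values are treated-to-control fluorescence ratios from a whole-yeast-genome DNA chip (65° C, over 12 h hybridization) using Cy3/Cy5-labelled cDNA from mRNA. Log-phase S288C cells in YPD at 25° C were exposed 2 h to a toxicant at sublethal, growth-inhibiting concentration.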

## S=C([S-])NCCNC(=S)[S-].[Zn+2] [(11), zinc N,N′-ethylenebis(dithiocarbamate)]
Yeast gene YMR293C, ratio of DNA chip fluorescence intensity to that without chemical substance
  The level of expressed mRNA in the presence of chemical substance/ (in its absence), gene YMR293C: 0.4
Yeast gene YMR314W
  The level of expressed mRNA in the presence of chemical substance/The level of expressed mRNA in the absence of chemical substance: 1.8
Yeast gene YNL006W
  The level of expressed mRNA in the presence of chemical substance/The level of expressed mRNA in the absence of chemical substance: 1.1
Yeast gene YNL007C
  The level of expressed mRNA in the presence of chemical substance/The level of expressed mRNA in the absence of chemical substance: 1.3
Yeast gene YNL025C, ratio of DNA chip fluorescence intensity to that without chemical substance
  The level of expressed mRNA in the presence of chemical substance/ (in its absence), gene YNL025C: 1.1
Yeast gene YNL064C
  The level of expressed mRNA in the presence of chemical substance/ (ratio to absence of chemical substance): 0.9
Yeast gene YNL073W, mitochondria-located protein genes, 2 h culture with chemical
  The level of expressed mRNA in the presence of chemical substance/ (ratio to absence), gene YNL073W: 1.1
Yeast gene YNL093W
  The level of expressed mRNA in the presence of chemical substance/The level of expressed mRNA in the absence of chemical substance: 1.6
Yeast gene YNL192W, ratio of DNA chip fluorescence intensity to that without chemical substance
  The level of expressed mRNA in the presence of chemical substance/ (in its absence), gene YNL192W: 1.1
Yeast gene YNL333W
  The level of expressed mRNA in the presence of chemical substance/The level of expressed mRNA in the absence of chemical substance: 2.0
Yeast gene YNR010W
  The level of expressed mRNA in the presence of chemical substance/The level of expressed mRNA in the absence of chemical substance: 1.4
Yeast gene YNR069C
  The level of expressed mRNA in the presence of chemical substance/The level of expressed mRNA in the absence of chemical substance: 2.5
Yeast gene YNR072W, ratio of DNA chip fluorescence intensity to that without chemical substance
  The level of expressed mRNA in the presence of chemical substance/ (in its absence), gene YNR072W: 1.4
Yeast gene YNR076W
  The level of expressed mRNA in the presence of chemical substance/ (ratio to absence of chemical substance): 1.4
Yeast gene YOL013C
  The level of expressed mRNA in the presence of chemical substance/The level of expressed mRNA in the absence of chemical substance: 1.4
Yeast gene YOL096C, mitochondria-located protein genes, 2 h culture with chemical
  The level of expressed mRNA in the presence of chemical substance/ (ratio to absence), gene YOL096C: 1.2
Yeast gene YOL096C, ratio of DNA chip fluorescence intensity to that without chemical substance
  The level of expressed mRNA in the presence of chemical substance/ (in its absence), gene YOL096C: 1.2
Yeast gene YOL108C, ratio of DNA chip fluorescence intensity to that without chemical substance
  The level of expressed mRNA in the presence of chemical substance/ (in its absence), gene YOL108C: 1.1
Yeast gene YOL116W, ratio of DNA chip fluorescence intensity to that without chemical substance
  The level of expressed mRNA in the presence of chemical substance/ (in its absence), gene YOL116W: 1.0
Yeast gene YOL161C
  The level of expressed mRNA in the presence of chemical substance/ (ratio to absence of chemical substance): 1.5
Yeast gene YOL164W
  The level of expressed mRNA in the presence of chemical substance/The level of expressed mRNA in the absence of chemical substance: 1.0
Yeast gene YOR008C
  The level of expressed mRNA in the presence of chemical substance/ (ratio to absence of chemical substance): 1.0
Yeast gene YOR009W
  The level of expressed mRNA in the presence of chemical substance/ (ratio to absence of chemical substance): 1.4
Yeast gene YOR010C
  The level of expressed mRNA in the presence of chemical substance/ (ratio to absence of chemical substance): 1.2
Yeast gene YOR036W
  The level of expressed mRNA in the presence of chemical substance/The level of expressed mRNA in the absence of chemical substance: 1.3
Yeast gene YOR103C, ratio of DNA chip fluorescence intensity to that without chemical substance
  The level of expressed mRNA in the presence of chemical substance/ (in its absence), gene YOR103C: 1.0
Yeast gene YOR117W
  The level of expressed mRNA in the presence of chemical substance/The level of expressed mRNA in the absence of chemical substance: 1.2
Yeast gene YOR124C
  The level of expressed mRNA in the presence of chemical substance/The level of expressed mRNA in the absence of chemical substance: 1.2
Yeast gene YOR132W
  The level of expressed mRNA in the presence of chemical substance/The level of expressed mRNA in the absence of chemical substance: 1.3
Yeast gene YOR157C
  The level of expressed mRNA in the presence of chemical substance/The level of expressed mRNA in the absence of chemical substance: 1.6
Yeast gene YOR180C, ratio of DNA chip fluorescence intensity to that without chemical substance
  The level of expressed mRNA in the presence of chemical substance/ (in its absence), gene YOR180C: 0.6
Yeast gene YOR181W
  The level of expressed mRNA in the presence of chemical substance/The level of expressed mRNA in the absence of chemical substance: 1.0
Yeast gene YOR185C
  The level of expressed mRNA in the presence of chemical substance/The level of expressed mRNA in the absence of chemical substance: 1.2
Yeast gene YOR198C
  The level of expressed mRNA in the presence of chemical substance/The level of expressed mRNA in the absence of chemical substance: 1.4
Yeast gene YOR251C, ratio of DNA chip fluorescence intensity to that without chemical substance
  The level of expressed mRNA in the presence of chemical substance/ (in its absence), gene YOR251C: 1.0
Yeast gene YOR259C
  The level of expressed mRNA in the presence of chemical substance/The level of expressed mRNA in the absence of chemical substance: 1.0
Yeast gene YOR261C
  The level of expressed mRNA in the presence of chemical substance/The level of expressed mRNA in the absence of chemical substance: 2.1
Yeast gene YOR288C
  The level of expressed mRNA in the presence of chemical substance/The level of expressed mRNA in the absence of chemical substance: 1.4
Yeast gene YOR316C, mitochondria-located protein genes, 2 h culture with chemical
  The level of expressed mRNA in the presence of chemical substance/ (ratio to absence), gene YOR316C: 2.4
Yeast gene YOR348C, ratio of DNA chip fluorescence intensity to that without chemical substance
  The level of expressed mRNA in the presence of chemical substance/ (in its absence), gene YOR348C: 1.1
Yeast gene YOR355W
  The level of expressed mRNA in the presence of chemical substance/The level of expressed mRNA in the absence of chemical substance: 1.2
Yeast gene YOR363C, ratio of DNA chip fluorescence intensity to that without chemical substance
  The level of expressed mRNA in the presence of chemical substance/ (in its absence), gene YOR363C: 1.2
Yeast gene YOR383C
  The level of expressed mRNA in the presence of chemical substance/The level of expressed mRNA in the absence of chemical substance: 1.4
Yeast gene YPL040C, mitochondria-located protein genes, 2 h culture with chemical
  The level of expressed mRNA in the presence of chemical substance/ (ratio to absence), gene YPL040C: 0.9
Yeast gene YPL059W
  The level of expressed mRNA in the presence of chemical substance/ (ratio to absence of chemical substance): 1.6
Yeast gene YPL089C
  The level of expressed mRNA in the presence of chemical substance/The level of expressed mRNA in the absence of chemical substance: 0.9
Yeast gene YPL134C, mitochondria-located protein genes, 2 h culture with chemical
  The level of expressed mRNA in the presence of chemical substance/ (ratio to absence), gene YPL134C: 1.7
Yeast gene YPL140C
  The level of expressed mRNA in the presence of chemical substance/ (ratio to absence of chemical substance): 0.8
Yeast gene YPL148C, ratio of DNA chip fluorescence intensity to that without chemical substance
  The level of expressed mRNA in the presence of chemical substance/ (in its absence), gene YPL148C: 3.5
Yeast gene YPL149W
  The level of expressed mRNA in the presence of chemical substance/The level of expressed mRNA in the absence of chemical substance: 1.2
Yeast gene YPL154C
  The level of expressed mRNA in the presence of chemical substance/The level of expressed mRNA in the absence of chemical substance: 1.8
Yeast gene YPL194W
  The level of expressed mRNA in the presence of chemical substance/ (ratio to absence of chemical substance): 0.9
Yeast gene YPR005C
  The level of expressed mRNA in the presence of chemical substance/ (ratio to absence of chemical substance): 0.4
Yeast gene YPR103W
  The level of expressed mRNA in the presence of chemical substance/The level of expressed mRNA in the absence of chemical substance: 0.9
Yeast gene YPR108W
  The level of expressed mRNA in the presence of chemical substance/The level of expressed mRNA in the absence of chemical substance: 1.8
Yeast gene YPR165W, ratio of DNA chip fluorescence intensity to that without chemical substance
  The level of expressed mRNA in the presence of chemical substance/ (in its absence), gene YPR165W: 1.0
Energy system protein genes, 2 h culture with the chemical, ratio to control without chemical
  The level of expressed mRNA in the presence of chemical substance/ in its absence, gene YPR184W: 3.6
Ratio of DNA chip fluorescence intensity to that without chemical substance
  The level of expressed mRNA in the presence of chemical substance/ in its absence, gene YPR184W: 3.6
